From US6872805B2 (Bristol-Myers Squibb Company, priority 2000, dated 2005)

Experiments:
[1] = target: HCV NS3/4A protease complex (Hepatitis C virus genotype 1a, UniProt P27958, C1454S/C1711G); assay: Recombinant HCV NS3/4A protease complex FRET peptide assay (strain not stated); type: biochemical; settings: IC50, NS3/4A protease enzyme assay, strain not stated; activity ranges
From the text: The purpose of this in vitro assay was to measure the inhibition of HCV NS3 protease complexes, derived from the BMS, H77C or J416S strains, as described below, by compounds of the present invention.
Serum from an HCV-infected patient was obtained from Dr. T. Wright, San Francisco Hospital. An engineered full-length cDNA template of the HCV genome (BMS strain) was constructed from DNA fragments obtained by reverse transcription-PCR (RT-PCR) of serum RNA and using primers selected on the basis of homology between other genotype 1a strains. […] The infectious clones, H77C (1a genotype) and J4L6S (1b genotype) were obtained from R. Purcell (NIH) and the sequences are published in genebank (AAB67036, see Yanagi, M., Purcell, R. H., Emerson, S. U. and Bukh, J. Proc. Natl. Acad. Sci. U.S.A. 94(16),8738-8743 (1997); AF054247, see Yanagi, M., St Claire, M., Shapiro, M., Emerson, S. U., Purcell, R. H. and Bukh, J, Virology 244 (1), 161-172. (1998)).
The BMS, H77C and J4L6S strains were used for production of recombinant NS3/4A protease complexes. DNA encoding the recombinant HCV NS3/4A protease complex (amino acid 1027 to 1711) for these strains were manipulated as described by P. Gallinari et al. (see Gallinari P, Paolini C, Brennan D, Nardi C, Steinkuhler C, De Francesco R. Biochemistry. 38(17):5620-32, (1999)). Briefly, a three-lysine solubilizing tail was added at the 3′-end of the NS4A coding region. The cysteine in the P1 position of the NS4A-NS4B cleavage site (amino acid 1711) was changed to a glycine to avoid the proteolytic cleavage of the lysine tag. Furthermore, a cysteine to serine mutation was introduced by PCR at amino acid position 1454 to prevent the autolytic cleavage in the NS3 helicase domain. The variant DNA fragment was cloned in the pET21b bacterial expression vector and the NS3/4A complex was expressed in E. coli BL21 (DE3) following the protocol described by P. Gallinari et al. (see Gallinari P, Brennan D, Nardi C, Brunetti M, Tomei L, Steinkuhler C, De Francesco R., J Virol. 72(8):6758-69 (1998)) with modifications. Briefly, NS3/4A expression was induced with 0.5 mM IPTG for 22 hr at 20° C. […] The cells were resuspended in lysis buffer (10 mL/g) consisting of 25 mM HEPES, pH 7.5, 20% glycerol, 500 mM NaCl, 0.5% Triton-X100, 1 ug/ml lysozyme, 5 mM MgCl2, 1 ug/ml DNaseI 5 mM β-Mercaptoethanol (βME), Protease inhibitor—EDTA free, homogenized and incubated for 20 mins at 4° C. The homogenate was sonicated and clarified by ultra-centrifugation at 235000 g for 1 hr at 4° C. Imidazole was added to the supernatant to a final concentration of 15 mM and the pH adjusted to 8.0. The crude protein extract was loaded on a Ni-NTA column pre-equilibrated with buffer B (25 mM HEPES, pH 8.0, 20% glycerol, 500 mM NaCl, 0.5% Triton-X100, 15 mM imidazole, 5 mM βME). The sample was loaded at a flow rate of 1 mL/min. The column was washed with 15 column volumes of buffer C (same as buffer B except with 0.2% Triton-X100). The protein was eluted with 5 column volumes of 200 mM Imidazole in buffer.
NS3/4A protease complex-containing fractions were pooled and loaded on a desalting column Superdex-S200 pre-equilibrated with buffer D (25 mM HEPES, pH 7.5, 20% glycerol, 300 mM NaCl, 0.2% Triton-X100, 10 mM βME). Sample was loaded at a flow rate of 1 mL/min. NS3/4A protease complex-containing fractions were pooled and concentrated to approximately 0.5 mg/ml.

[2] = system: HCV replicon in Huh7 cells; assay: HCV replicon cell-based assay; parameters: species or system HCV strain 1B; settings: Hepatitis C virus, Huh-7, 96 h; HCV replicon, Huh7 cells, 4 days; activity ranges; read-out: EC50
From the text: An HCV replicon whole cell system was established as described by Lohmann V, Korner F, Koch J, Herian U, Theilmann L, Bartenschlager R., Science 285(5424):110-3 (1999). This system enabled us to evaluate the effects of our HCV Protease compounds on HCV RNA replication. Briefly, using the HCV strain 1B sequence described in the Lohmann paper (Assession number:AJ238799), an HCV cDNA was generated encoding the 5′ internal ribosome entry site (IRES), the neo gene, the EMCV-IRES and the HCV nonstructural proteins, NS3-NS5B, and 3′ NTR. […] Resulting cell lines were characterized for positive and negative RNA production and protein production over time.
Huh7 cells, constitutively expressing the HCV replicon, were grown in DMEM containing 10% FCS (Fetal calf serum) and 1 mg/ml G418 (Gibco-BRL). Cells were seeded the night before (1.5×10^4 cells/well) in 96-well tissue-culture sterile plates. Compound was prepared in DMEM containing 4% FCS, 1:100 Penicillin/Streptomysin, 1:100 L-glutamine and 0.5% DMSO. Compound/DMSO mixes were added to the cells and incubated for 4 days at 37° C. After 4 days, cells were either lyzed using the Rneasy kit (Qiagen) to isolate and purify RNA for an EC50 determination or assessed for cytotoxicity using alamar Blue (Trek Diagnotstic Systems) for a CC50 reading. For an EC50 determination, purified total RNA was normalized using RiboGreen (Jones L J, Yue S T, Cheung C Y, Singer V L, Anal. Chem., 265(2):368-74 (1998)) and relative quantitation of HCV RNA expression assessed using the Taqmann procedure (Kolykhalov A A, Mihalik K, Feinstone S M, Rice C M, Journal of Virology 74, 2046-2051 (2000)). Briefly, RNA made to a volume of 5 μl (≦1 ng) was added to a 20 μl Ready-Mix containing the following: 5×EZ rTth buffer, 3 mM MnOAc2, 3 mM dNTPs, 200 nM forward primer, 600 nM reverse primer, 100 nM probe and rTth polymerase. Samples containing known concentrations of HCV RNA transcript were run as standards. Using the following cycling protocol (95° C., 1 min; 60° C., 0.5 min; 95° C., 2 min; 40 cycles of 94° C., 0.5 min, 60° C.; 1 min; and completing with 60° C., 10 min), HCV RNA expression was quantitated as described in the Perkin Elmer manual. The toxicity of compound (CC50) was determined by adding 1/10th volume of alamar Blue to the media incubating the cells. After 4 hr, the fluorescence signal from each well was read, with an excitation wavelength at 530 nm and an emission wavelength of 580 nm, using the Cytofluor Series 4000 (Perspective Biosystems).

Sequence of HCV NS3/4A protease complex (P27958 1027-1711, stated change not applied): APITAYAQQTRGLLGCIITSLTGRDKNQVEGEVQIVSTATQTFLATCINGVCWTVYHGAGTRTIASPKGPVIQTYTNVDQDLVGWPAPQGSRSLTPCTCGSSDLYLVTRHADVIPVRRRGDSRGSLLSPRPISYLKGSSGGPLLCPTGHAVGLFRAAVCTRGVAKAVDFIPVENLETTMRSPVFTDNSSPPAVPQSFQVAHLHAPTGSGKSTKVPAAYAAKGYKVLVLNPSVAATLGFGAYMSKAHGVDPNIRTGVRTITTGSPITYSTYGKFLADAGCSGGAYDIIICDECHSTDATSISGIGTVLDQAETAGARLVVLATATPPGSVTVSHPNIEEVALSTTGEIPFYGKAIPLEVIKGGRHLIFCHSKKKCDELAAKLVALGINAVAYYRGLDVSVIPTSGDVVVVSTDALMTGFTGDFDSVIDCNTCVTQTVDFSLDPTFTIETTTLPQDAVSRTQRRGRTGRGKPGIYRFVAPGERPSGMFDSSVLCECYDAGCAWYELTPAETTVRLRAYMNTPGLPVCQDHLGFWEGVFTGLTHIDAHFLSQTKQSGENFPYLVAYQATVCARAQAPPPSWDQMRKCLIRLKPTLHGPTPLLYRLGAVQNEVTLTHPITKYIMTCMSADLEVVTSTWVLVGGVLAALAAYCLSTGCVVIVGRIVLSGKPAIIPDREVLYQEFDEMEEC
Sequence of HCV NS3/4A protease complex (P27958 1027-1711, stated change not applied): as above

`C=CC1C[C@]1(NC(=O)[C@@H]1C[C@@H](Oc2cc(-c3ccccc3)nc3cc(OC)ccc23)CN1C(=O)[C@@H](NC(=O)OC(C)(C)C)C(C)(C)C)C(=O)NS(=O)(=O)CC1CCC1` (stereo in doubt) [Compound 15, {1-[2-(1-Cyclobutylmethanesulfonylaminocarbonyl-2-vinylcyclopropylcarbamoyl)-4-(7-methoxy-2-phenylquinolin-4-yloxy)pyrrolidine-1-carbonyl]-2,2-dimethylpropyl}-carbamic acid tert-butyl ester] was tested, and the IC50 [1] was < 500 nM and the EC50 [2] was < 5000 nM.

For `C=CC1C[C@]1(NC(=O)[C@@H]1C[C@@H](Oc2cc(-c3ccccc3)nc3cc(OC)ccc23)CN1C(=O)[C@@H](NC(=O)OC(C)(C)C)C(C)(C)C)C(=O)NS(=O)(=O)CC1CC1` (stereo in doubt) [Compound 16, {1-[2-(1-Cyclopropylmethanesulfonylaminocarbonyl-2-vinylcyclopropylcarbamoyl)-4-(7-methoxy-2-phenylquinolin-4-yloxy)pyrrolidine-1-carbonyl]-2,2-dimethylpropyl}-carbamic acid tert-butyl ester], the IC50 [1] was < 500 nM and the EC50 [2] was < 500 nM.

In the case of `C=CC1C[C@]1(NC(=O)[C@@H]1C[C@@H](Oc2cc(-c3ccccc3)nc3cc(OC)ccc23)CN1C(=O)[C@@H](NC(=O)NC(C)(C)C)C(C)(C)C)C(=O)NS(=O)(=O)C1CC1` (stereo in doubt) [Compound 19, 1-[2-(3-tert-Butylureido)-3,3-dimethylbutyryl]-4-(7-methoxy-2-phenylquinolin-4-yloxy)pyrrolidine-2-carboxylic acid (1-cyclopropanesulfonylaminocarbonyl-2-vinylcyclopropyl)amide], the IC50 [1] is reported as < 50 nM and the EC50 [2] is reported as < 50 nM.

With `C=CC1C[C@]1(NC(=O)[C@@H]1C[C@@H](Oc2cc(-c3ccccc3)nc3cc(OC)ccc23)CN1C(=O)[C@@H](NC(=O)N(CCC(F)(F)F)CC1CC1)C(C)(C)C)C(=O)NS(=O)(=O)C1CC1` (stereo in doubt) [Compound 20, 1-{2-[3-Cyclopropylmethyl-3-(3,3,3-trifluoropropyl)-ureido]-3,3-dimethylbutyryl}-4-(7-methoxy-2-phenyl-quinolin-4-yloxy)-pyrrolidine-2-carboxylic acid (1-cyclopropanesulfonylaminocarbonyl-2-vinyl-cyclopropyl)amide] the IC50 [1] was < 50 nM and the EC50 [2] was < 500 nM.

In the case of `CCC1C[C@]1(NC(=O)[C@@H]1C[C@@H](Oc2cc(-c3ccccc3)nc3cc(OC)ccc23)CN1C(=O)[C@@H](NC(=O)OC1CCCC1)C(C)C)C(=O)NS(=O)(=O)C1CC1` (stereo partly drawn) [Compound 6], the IC50 [1] is reported as < 50 nM and the EC50 [2] is reported as < 50 nM.

With `CCOC(=O)N[C@H](C(=O)N1C[C@H](Oc2cc(-c3ccccc3)nc3cc(OC)ccc23)C[C@H]1C(=O)N[C@]1(C(=O)NS(=O)(=O)C2CC2)CC1CC)C(C)C` (stereo partly drawn) [Compound 7] the IC50 [1] was < 50 nM and the EC50 [2] was < 500 nM.

In the case of `CCC1C[C@]1(NC(=O)C1C[C@@H](Oc2cc(-c3ccccc3)nc3cc(OC)ccc23)CN1C(=O)[C@@H](NC(=O)OCCF)C(C)C)C(=O)NS(=O)(=O)C1CC1` (stereo partly drawn) [Compound 9], the IC50 [1] is reported as < 50 nM and the EC50 [2] is reported as < 500 nM.

For `C=CC1C[C@]1(NC(=O)[C@@H]1C[C@@H](Oc2cc(-c3ccccc3)nc3cc(OC)ccc23)CN1C(=O)[C@@H](NC(=O)OC(C)(C)C)C(C)(C)C)C(=O)NS(=O)(=O)c1ccc(Br)cc1` (stereo partly drawn) [Compound 17], the IC50 [1] was < 500 nM and the EC50 [2] was < 500 nM.

In the case of `C=CC1C[C@]1(NC(=O)[C@@H]1C[C@@H](Oc2cc(-c3ccccc3)nc3cc(OC)ccc23)CN1C(=O)[C@@H](NC(=O)O[C@H]1CCOC1)C(C)(C)C)C(=O)NS(=O)(=O)C1CC1` (stereo partly drawn) [Compound 18, {1-[2-(1-Cyclopropanesulfonylaminocarbonyl-2-vinylcyclopropylcarbamoyl)-4-(7-methoxy-2-phenyl-quinolin-4-yloxy)-pyrrolidine-1-carbonyl]-2,2-dimethyl-propyl}carbamic acid tetrahydrofuran-3(S)-yl ester], the IC50 [1] is reported as < 50 nM and the EC50 [2] is reported as < 50 nM.

For `COc1ccc2c(O[C@@H]3CC(C(=O)NC4(C(=O)NS(=O)(=O)C5CC5)CC4)N(C(=O)[C@@H](NC(=O)OC(C)(C)C)C(C)C)C3)cc(-c3ccccc3)nc2c1` (stereo partly drawn) [Compound 21], the IC50 [1] was < 50 nM and the EC50 [2] was < 5000 nM.

In the case of `COc1ccc2c(O[C@@H]3C[C@@H](C(=O)NC4(C(=O)NS(=O)(=O)C5CC5)CCC4)N(C(=O)[C@@H](NC(=O)OC(C)(C)C)C(C)(C)C)C3)cc(-c3ccccc3)nc2c1` [Compound 22], the IC50 [1] is reported as < 50 nM and the EC50 [2] is reported as < 500 nM.

In the case of `C=CC1C[C@]1(NC(=O)[C@@H]1C[C@@H](Oc2cc(-c3ccccc3)nc3cc(OC)ccc23)CN1C(=O)[C@@H](NC(=O)OC(C)(C)C)C(C)(C)C)C(=O)NS(=O)(=O)CCCC` (stereo partly drawn) [Compound 23], the IC50 [1] is reported as < 50 nM and the EC50 [2] is reported as < 500 nM.

`C=CC1C[C@]1(NC(=O)[C@@H]1C[C@@H](Oc2cc(-c3ccccc3)nc3cc(OC)ccc23)CN1C(=O)[C@@H](NC(=O)OC(C)(C)C)C(C)CC)C(=O)NS(=O)(=O)C1CC1` (stereo partly drawn) [Compound 24] was tested, and the IC50 [1] was < 500 nM and the EC50 [2] was < 500 nM.

In the case of `C=CC1C[C@]1(NC(=O)[C@@H]1C[C@@H](Oc2cc(-c3ccccc3)nc3cc(OC)ccc23)CN1C(=O)[C@@H](NC(=O)OC(C)(C)C)C(C)(C)C)C(=O)NS(=O)(=O)CC` (stereo partly drawn) [Compound 25], the IC50 [1] is reported as < 50 nM and the EC50 [2] is reported as < 500 nM.

In the case of `C=CC1C[C@]1(NC(=O)[C@@H]1C[C@@H](Oc2cc(-c3ccccc3)nc3cc(OC)ccc23)CN1C(=O)[C@@H](NC(=O)OC(C)(C)C)C(C)(C)C)C(=O)NS(=O)(=O)CCC` (stereo partly drawn) [Compound 26], the IC50 [1] is reported as < 50 nM and the EC50 [2] is reported as < 500 nM.
